Test results published in patent US20230406873A1, “PROBES, SYSTEMS, AND METHODS FOR MAGNETIC RESONANCE PH SENSING” (The General Hospital Corporation, priority 2020, published 2023).
Like-named read-outs stand apart in the source and are kept apart here. Marks after values point to notes of the source that are not given here.

What was measured:
[1] = pH-potentiometry of ligand (protonation constants); type: physicochemical; details: 0.1 M NaCl, 310 K; for log KLH: KLHn = [HnL]/[H][Hn-1L]
Protocol: (§1) pH-potentiometric measurements: pH-potentiometric measurements were performed using an Orion ROSS Ultra pH electrode and temperature-controlled reaction vessel held at 310 K. A standardized solution of 0.10 M NaOH was used as the titrant. The electrode was calibrated prior to each titration by titrating a standardized HCl(aq) solution at ionic strength 0.10 using NaCl as the inert electrolyte with the standardized NaOH titrant. A working slope and intercept were generated by plotting mV as a function of calculated pH, which enabled direct conversion of electrode readings to [H^+] during sample titrations. pH values recorded during the titrations refers to hydrogen ion concentration. All titration samples were prepared in solutions of 0.10 M NaCl in distilled, de-ionized water. Ligand solutions were prepared by dissolving a weighed quantity into the electrolyte and concentration was calculated from the effective weight of the ligand. Moles ligand present in titrand was also confirmed by measuring the mol added NaOH required to span each inflection point. Solutions of 1:1 ligand: Fe were prepared by adding an appropriate volume of standardized FeCl3 in 0.088 M HCl solution to a weighed quantity of ligand, the solutions were then adjusted with water and 1 M NaCl to ionic strength 0.10. The data was analyzed using the Hyperquad2013 software package.

[2] = pH-potentiometry of 1:1 ligand and Fe3+ solution (complex protonation constants, speciation); type: physicochemical; details: Fe^3+ complex, 0.1 M NaCl, 310 K; for log KML/ML(OH): 7.0 mM each Fe and ligand, [ML]/[ML(OH)][H], not an absolute protonation constant; for log KHML: KHML = [HML]/[H][ML]; for log KML: footnote d only: pH-potentiometry
Protocol: as §1

[3] = Estimation of log K (formation constant) from EDTA competition assay, HPLC; type: physicochemical; details: Fe^3+ complex; estimated from Kcomp using EDTA challenge; KML = [ML]/[M][L]
Text: The [Fe(PyCy2AI)]^+ formation constant was estimated from direct competition with EDTA at pH 4.4, I=0.1 M KNO3, and 310 K. Product distribution at equilibrium was estimated from an HPLC analysis of the reaction mixture (HPLC method A1). The equilibrium concentrations of [Fe(PyCy2AI)]^+ were quantified according to a linear calibration plot of HPLC peak area as a function of chelate concentration. An equilibrium constant, Keq, was estimated using Eq 4A,
The conditional (pH 4.4) formation constant, Kcond, was estimated from Keq and the previously (Kcond of Fe-EDTA measured under identical conditions using Eq 4B,
Under HPLC experimental conditions that cannot distinguish between chemical forms of the complex, the conditional stability constant can be estimated from the concentration coefficient of the ligand “L”, or PyCy2AI^2−, species (αL), which is known from the ligand pH-titration data. The formation constant was thus estimated using Eq 4C,
The HPLC assay conditions were chosen specifically to minimize contributions from ‘side products’ such as [Fe(HPyCy2AI)]^2+, [Fe(PyC2AI)(OH)], or [Fe(HEDTA)], which together we estimate to contribute <5% and <2% of total PyCy2AI and EDTA speciation.

[4] = Dimerization constant from concentration dependence on relaxivity at pH 9.0; type: physicochemical; details: Fe^3+ complex, pH 9.0, 310 K
Text: (§2) The dissociation constant for (ML)2O formation was estimated from the concentration dependence on r1 at pH 9.0, under these experimental conditions, complexes speciation is comprised near entirely by ML(OH) and the corresponding (ML)2O dimer and r1 can be expressed as Eq 7A, […]
r1=r1^monαmon+r1^dimαdim (Eq 7A) where r1^mon and r1^dim are the r1 corresponding to ML(OH) and (ML)2O and αmon and αdim are the fraction of total [Fe] comprised by each.
The concentration dependence on monomer vs. dimer speciation is governed by the equilibrium constant (Kd) in Eq 7B, Eq 7B can be rearranged to the corresponding quadratic equation, Eq 7C, and concentration of dimer solved by Eq 7D, Thus, the concentration dependence on ri was fit to a 3 parameter fit based on Eqs 7A-7D, yielding estimates of r1^mon, r1^dim, and Kd.

[5] = Dimerization constant from concentration dependence on extinction coefficient at 342 nm (UV-vis); type: physicochemical; details: Fe^3+ complex, pH 9.0, 310 K
Protocol: UV-vis spectra were recorded on a SpectraMax M2 spectrophotometer using quartz cuvettes with a 1 cm path length. Extinction coefficients recorded at pH 9 (ε, M^−1cm^−1) were estimated by dividing absorbance by sample Fe concentration.

[6] = Fe^3+ complexes of reference ligands; method and conditions not given; cited from earlier work
[7] = Relaxivity measurements (r1) of Fe-PyCy2AI species; type: physicochemical; details: Fe^3+ complex; estimated from pH dependence on r1
Protocol: Relaxivity measurements were performed on a Bruker mq60 Minispec, 1.41 T, and on an 11.7 T Varian NMR spectrometer at 37° C. Longitudinal (T1) relaxation times were measured via an inversion recovery experiment using 10 inversion times of duration ranging between 0.05 s T1 and 5 s T1. Transverse (T2) relaxation times were measured using a Carl-Purcell-Meiboom-Gill spin-echo experiment. Under experimental conditions where 1/T1,2 increased linearly with increasing [Fe], relaxivity (r2i=1,2) was determined from the slope of a plot of 1/Ti(i=1,2) vs. [Fe] for at least 4 concentrations. Under conditions where non-negligible dimerization occurs, plots of 1/T1,2 vs. [Fe] are non-linear and r1,2 were estimated by dividing the Fe induced increase in 1/T1,2 by [Fe]. […]
as §2
Magnetic resonance imaging was performed using a Bruker Biospec 4.7 T system. […] T1 values for each compound was determined using a 2D rapid acquisition refocused echo (RARE) sequence of flip angle (FA)=90°, echo time (TE)=20 ms, repetition time (TR) ranging from 146-7500 ms, acquisition matrix=256×128, field of view=64×32 mm, slice thickness 1 mm. […]

| SMILES | log KLH2 [1] | log KLH3 [1] | log KLH4 [1] | log KLH [1] | log KML/ML(OH) [2] | log KHML ([2]; 7.0 mM ligand and Fe^3+) | log KMLH-1/MLH-2 ([2]; 7.0 mM ligand and Fe^3+, [MLH-1]/[MLH-2][H]) | log KML [3] | Dimerization Ka ([4]; 1.4 T) | Dimerization Ka ([4]; 4.7 T) | Dimerization Ka ([4]; 11.7 T) | Dimerization Ka [5] | log KML ([2]; 7.0 mM ligand and Fe^3+) | log KML/ML(OH) [7] | Dimerization Ka [6] |
| --- | --- | --- | --- | --- | --- | --- | --- | --- | --- | --- | --- | --- | --- | --- | --- |
| O=C(O)CN(CC(=O)O)C1CCCCC1N(CC(=O)O)CC(=O)O (stereo not shown) [CyDTA, 1,2-Cyclohexylenedinitrilotetraacetic acid] | 6.12 | 3.49 | 2.40 | 12.3 | 9.57 |  |  |  |  |  |  |  | 29.1 |  | 0.012 mM⁻¹ |
| O=C(O)CN(CCO)CCN(CC(=O)O)CC(=O)O [HEDTA, Hydroxyethylethylenediaminetriacetic acid] |  |  |  |  |  |  |  |  |  |  |  |  |  |  | 0.24 mM⁻¹ |
| CC(CN(CC(=O)O)CC(=O)O)N(CC(=O)O)CC(=O)O (stereo not shown) [PDTA, N,N,N′,N′-1,2-propylenediaminetetracetic acid] |  |  |  |  |  |  |  |  |  |  |  |  |  |  | 0.19 mM⁻¹ |

The next lines start with results.

| log KLH2 [1] | log KLH3 [1] | log KLH4 [1] | log KLH [1] | log KML/ML(OH) [2] | log KHML ([2]; 7.0 mM ligand and Fe^3+) | log KMLH-1/MLH-2 ([2]; 7.0 mM ligand and Fe^3+, [MLH-1]/[MLH-2][H]) | log KML [3] | Dimerization Ka ([4]; 1.4 T) | Dimerization Ka ([4]; 4.7 T) | Dimerization Ka ([4]; 11.7 T) | Dimerization Ka [5] | log KML ([2]; 7.0 mM ligand and Fe^3+) | log KML/ML(OH) [7] | SMILES | Dimerization Ka [6] |
| --- | --- | --- | --- | --- | --- | --- | --- | --- | --- | --- | --- | --- | --- | --- | --- |
| 6.44 ± 0.03 | 4.23 ± 0.033 | 2.27 ± 0.05 | 10.62 ± 0.04 | 6.46 ± 0.03 | 2.91 ± 0.05 | 10.24 ± 0.05 | 23.9 ± 0.03^c | 2.3 ± 0.57 mM⁻¹ | 5.1 ± 2.7 mM⁻¹ | 7.4 ± 5.5 mM⁻¹ | 6.2 ± 1.5 mM⁻¹ |  |  | O=C(O)CN(Cc1c[nH]cn1)C1CCCC[C@@H]1N(CC(=O)O)Cc1ccccn1 (mixture of isomers) [PyCy2AI, (±)-trans-N-((1H-imidazol-4-yl)methyl)-N′-(picolyl)-N,N′-cyclohexane-1,2-diamine diacetate bis-trifluoroacetic acid] |  |
| 6.13 | 2.69 | 2.00 | 10.19 | 7.37 | 1.3 |  |  |  |  |  |  | 25.1 |  | O=C(O)CN(CCN(CC(=O)O)CC(=O)O)CC(=O)O [EDTA, Ethylenediaminetetraacetic acid] | 0.44 mM⁻¹ |
| 6.39 | 3.13 |  | 10.16 |  |  |  | 26.0^c |  |  |  |  |  | 8.50^g | O=C(O)CN(CC(=O)O)[C@H]1CCCC[C@@H]1N(CC(=O)O)Cc1ccccn1 [PyC3A] |  |
